# Experimental data reported in ChEMBL document CHEMBL5537195, “Novel Covalent Probe Selectively Targeting Glutathione Peroxidase 4 In Vivo: Potential Applications in Pancreatic Cancer Therapy” (J Med Chem, 2024).
# Activity calls are given as the source filed them. No cut-off for these calls is given here.
# Assays:
# [1] = test system: Capan-2; experiment: Antiproliferative activity against human Capan-2 cells assessed as inhibition of cell growth incubated for 72 hrs by CCK-8 assay; format: functional, cell-based
# [2] = test system: ASPC1; experiment: Induction of ferroptosis in human ASPC1 cells assessed as reduction in cell viability incubated for 48 hrs by CCK-8 assay; format: functional, cell-based; settings: ASPC1, 48 h
structure (smiles),measurement,setting,value
C#CCN(Cc1ccc(S(=O)(=O)N(C)C#C)cc1)c1ccc(-c2nc3ccccc3s2)cc1,Activity,[1],inactive
same,IC50,[2],26 nM
